Literature values, collected in publication PMC10251984, “Interactions of IDO and the Kynurenine Pathway with Cell Transduction Systems and Metabolism at the Inflammation–Cancer Interface” (Cancers, 2023).
pIC50: −log10 of the molar value. Read-outs that look alike come from different tables or passages of the source.

What was measured:
IDO2 [1] = tested on: IDO2; design: method as in PMID 29247038; details: relative to the D-isomer
[2] = tested on: activated human CD4+T cells; design: method as in PMID 32641388; details: each compound separately
multiple myeloma = tested on: multiple myeloma; design: method as in PMID 29089645, PMID 29487385
PD-L1 [3] = details: disrupts the interaction between Myc and HIF-1α
Lewis lung carcinomas = tested on: Lewis lung carcinomas; design: method as in PMID 32847988; details: combination with celecoxib
AHR = tested on: AHR; design: method as in PMID 34025677; details: AHR antagonist; induction by kynurenine in CD8+ T cells
T cell activation = tested on: T cell activation; design: method as in PMID 35663990; details: glutaminase inhibitor; autoimmune hepatitis
IDO1 [4] = tested on: IDO1; design: method as in PMID 30227893, PMID 35269712; details: IDO1 inhibitor; read-out: IC50 in direct enzyme assay
[5] = design: method as in PMID 29040756, PMID 25330068
[6] = tested on: Metastatic prostate cancer; details: combination with sipuleucel-T; Phase 2
Metastatic breast cancer = details: compared with taxane; Phase 2
IDO [7] = tested on: IDO; design: method as in PMID 32024760; details: IDO activity enhanced
IDO1 [8] = tested on: IDO1; design: method as in PMID 36389710
IDO2 [9] = tested on: IDO2; design: method as in PMID 36389710
T cell = tested on: T cell; design: method as in PMID 31648326; details: MEK inhibitor
IDO1 [10] = tested on: IDO1; design: method as in PMID 28212885; details: COX-2 inhibitor
experimental arthritis = tested on: experimental arthritis; design: method as in PMID 33941676; details: IDO-dependent manner
PD-L1 [11] = tested on: PD-L1; design: method as in PMID 33220359
[12] = tested on: triple-negative breast cancer, colon and lung syngeneic tumor models; design: method as in PMID 35265193; details: combined with an anti-PD-L1 antibody
PD-L1 [13] = tested on: PD-L1; design: method as in PMID 35120895; details: via inhibition of the JAK–STAT–IRF1 pathway
IDO [14] = tested on: IDO; design: method as in PMID 35120895; details: via inhibition of the JAK–STAT–IRF1 pathway
IDO1 [15] = details: COX-2 inhibition; IFNγ-induced

In the case of Cn1cc(C[C@H](N)C(=O)O)c2ccccc21 (single isomer, unassigned; isomer 1) [L-isomer, 1-methyl-tryptophan], the “inhibiting IDO2” value (IDO2 [1]) is given as “much more active”.

For O=CC[C@@H](O)[C@H](O)[C@H](O)CO [2-deoxyglucose], the IFNγ production [2] is given as “inhibit IFNγ production”.

In the case of O=C(CCCCCCNC(=O)c1cnc(N(c2ccccc2)c2ccccc2Cl)nc1)NO [ACY241], the “efficacy against multiple myeloma” value (multiple myeloma) is listed as “effective”.

For C=C1C(=O)O[C@H]2C[C@@H](C)[C@@H]3[C@@H](OC(C)=O)C[C@H](O)[C@@]3(C)[C@@H](OC(C)=O)[C@H]12 [Britannin], the “expression of PD-L1” value (PD-L1 [3]) is given as “reducing the expression of PD-L1”.

In the case of Nc1ncnc2c1ncn2[C@@H]1O[C@@H]2COP(=O)(O)O[C@H]3[C@@H](O)[C@H](n4cnc5c(N)ncnc54)O[C@@H]3COP(=O)(O)O[C@H]2[C@H]1O [CDA, cyclic di-adenyl monophosphate], the survival (Lewis lung carcinomas) is given as “enhanced survival” and the tumor growth (Lewis lung carcinomas) is given as “controlled tumor growth”.

For Cc1ccccc1N=Nc1ccc(NC(=O)c2ccnn2C)c(C)c1 [CH223191], the “induction of PD-1” value (AHR) is given as “blocked the induction of PD-1”.

In the case of [N-]=[N+]=CC(=O)CC[C@H](N)C(=O)O [DON, 6-diazo-5-oxo-L-norleucine], the T cell activation (T cell activation) is listed as “inhibited T cell activation”.

For NS(=O)(=O)NCCNc1nonc1C(=NO)Nc1ccc(F)c(Br)c1 [Epacadostat], the pIC50 (IDO1 [4]) is given as […], the trial outcome (melanoma; combined with the PD-1 antagonist pembrolizumab) is given as “no significant benefit” and the clinical efficacy (melanoma; randomized trial combined with pembrolizumab in patients with melanoma) is given as “clinically ineffective”.

For O=Cc1c2[nH]c3ccccc3c2cc2[nH]c3ccccc3c12 [FICZ, 6-Formylindolo-[3,2-b]-carbazole], the metabolism / removal [5] is listed as “rapidly removed”.

In the case of Cn1cc(C[C@@H](N)C(=O)O)c2ccccc21 [Indoximod, 1-methyl-D-tryptophan], the trial outcome [6] is listed as “[224] Combination with sipuleucel-T yielded radiological and clinical improvement” and the trial outcome (Metastatic breast cancer) is listed as “[226] No improvement compared with taxane”.

In the case of CC(=O)NCCc1c[nH]c2ccc(O)cc12 [N-acetyl-5-hydroxy-tryptamine], the “mode of action on IDO activity” value (IDO [7]) is listed as “positive allosteric modulator”.

For CCCCCCCC1=Nc2ccccc2C(=O)C1O (stereo not shown) [PQS, 2-heptyl-3-hydroxy-4-quinolone], the “expression of IDO1” value (IDO1 [8]) is listed as “inhibits” and the “expression of IDO2” value (IDO2 [9]) is listed as “inhibits”.

In the case of Clc1cc2c(cc1Cl)Oc1cc(Cl)c(Cl)cc1O2 [TCDD, 2,3,7,8-tetrachloro-dibenzo-dioxin], the metabolism / removal [5] is given as “poorly metabolized”.

In the case of CC(=O)Nc1cccc(-n2c(=O)n(C3CC3)c(=O)c3c(Nc4ccc(I)cc4F)n(C)c(=O)c(C)c32)c1 [Trametinib], the “T cell viability and proliferation” value (T cell) is listed as “promote T cell viability and proliferation”.

In the case of Cc1ccc(-c2cc(C(F)(F)F)nn2-c2ccc(S(N)(=O)=O)cc2)cc1 [celecoxib], the “induction of IDO1” value (IDO1 [10]) is given as “prevented the induction of IDO1”.

For Nc1ncn([C@H]2C[C@H](O)[C@@H](CO)O2)c(=O)n1 [decitabine], the occurrence of relapse (experimental arthritis) is given as “prevented the occurrence of relapse” and the symptoms of arthritis (experimental arthritis) is given as “reduced the symptoms of arthritis”.

For COc1ccc(CCc2cc(OC)c(OC)c(OC)c2)cc1O [erianin], the PD-L1 expression (PD-L1 [11]) is listed as “inhibited PD-L1 expression”.

In the case of CCCNS(=O)(=O)Nc1ncnc(OCCOc2ncc(Br)cn2)c1-c1ccc(Br)cc1 [macitentan], the anti-tumor efficacy [12] is given as “improved anti-tumor efficacy”.

In the case of CN(C)C(=N)N=C(N)N [metformin], the IFNγ production [2] is given as “inhibit IFNγ production”.

In the case of O=c1c(O)c(-c2cc(O)c(O)c(O)c2)oc2cc(O)cc(O)c12 [myricetin], the “induction of PD-L1 by IFNγ” value (PD-L1 [13]) is given as “prevent the induction” and the “induction of IDO by IFNγ” value (IDO [14]) is given as “prevent the induction”.

In the case of CS(=O)(=O)Nc1ccc([N+](=O)[O-])cc1Oc1ccccc1 [nimesulide], the “induction of IDO1” value (IDO1 [15]) is listed as “prevented induction of IDO1”.
